Measured values published in patent publication US20190119200A1, “TERTIARY AMIDES AND METHOD OF USE” (AbbVie Inc., priority 2016, published 2019).

Columns and labels:
LPAR1 = target: T1, LPAR1 (Homo sapiens, UniProt Q92633); assay: LPAR1 FLIPR Assay; format: cell-based; conditions: U2OS cells stably expressing LPAR1, LPA (EC80), Calcium 6 FLIPR dye; for Emax: read-out: Maximum Inhibition
T1 construct: host or cells: U2OS
Procedure, shortened: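 U2OS cells stably expressing LPAR1 were loaded with Calcium 6 dye for 2 h at 37° C, preincubated 3 min with compound (11-point 3-fold series), then stimulated with LPA at EC80. Fluorescence at 515-575 nm was recorded by FLIPR; IC50 came from four-parameter logistic fits of ratio data.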

[1] = test system: LPA-induced MCP-1 in NRK-49F cells; assay: LPA-induced MCP-1 AlphaLISA assay; format: cell-based; conditions: Rattus norvegicus, final LPA 10 μM, 7 hours; for Emax: read-out: Maximum Inhibition
Experimental: Two days prior to the experiment, NRK-49F cells were plated at 8,000 cells/well in 100 μL of growth medium [DMEM (Life Technologies #11995) with 5% dFBS (Life Technologies #30067-334), 100 units/mL penicillin/streptomycin (Life Technologies #15140122)] in 96-well clear flat bottom polystyrene TC-treated microplate (Corning® #3599) and incubated in humidified 10% CO2 at 37° C. One day prior to the experiment, the cell medium was removed and serum free medium [100 μL/well, DMEM (Life Technologies #11995) with 0.1% fatty acid free BSA (Sigma #A6003)] was added with continued incubation in humidified 10% CO2 at 37° C. overnight. On the day of the assay, test compounds were 1:3 serially diluted in 100% DMSO using a BioTek Precision™ system and then transferred (equivalent volume of DMSO as controls) to a plate in serum free medium [DMEM with 0.1% fatty acid free BSA] using a Biomek® NX workstation to give a 2× compound solution. The cell culture medium was removed, and cells were pre-treated with 50 μL/well of 2× compound in serum free medium [DMEM with 0.1% fatty acid free BSA] at 37° C. for 30 minutes. Following the incubation, 50 μL/well of 20 μM LPA diluted in serum free medium [DMEM with 0.1% fatty acid free BSA] was added to the cells. Serum free medium [DMEM with 0.1% fatty acid free BSA] was used as substitution for low control wells while 20 µM LPA was added to high control wells and test compound wells. 200 µM LPA was added to EC100 wells. Final DMSO concentration was 1% in every well. Final LPA concentration in test compound wells and high control wells was 10 μM. […] After the incubation, cell supernatant was transferred to a new 96 well polypropylene plate (Greiner #651201) where it was sealed and stored at −80° C. On the detection day, 5 μL of thawed cell supernatant was transferred to a new white opaque 384-well microplate (Perkin Elmer #6007299). An AlphaLISA® mouse/rat CCL2/MCP1, Immunoassay Research kit (PerkinElmer #AL509F) was used. A mixture (20 μL/well) of AlphaLISA® Anti-Analyte Accept beads (10 μg/mL final) and Biotinylated Antibody Anti-Analyte (freshly prepared, 1 nM final) was added. The mixture in the wells was mixed and then incubated at room temperature for 1 hour. Then SA-Donor beads (25 μL/well, 40 μg/mL final) were added giving a final volume of 50 μL/well. The contents of the wells were mixed and then incubated at room temperature for 0.5 hour (protect from light). The plate was read using the default Envision™ Alpha protocol (PerkinElmer). IC50 values were calculated from curve fits of the ratio data using a four-parameter logistic Hill equation (Assay Explorer 3.3 Client).

T1 sequence (Q92633 whole entry): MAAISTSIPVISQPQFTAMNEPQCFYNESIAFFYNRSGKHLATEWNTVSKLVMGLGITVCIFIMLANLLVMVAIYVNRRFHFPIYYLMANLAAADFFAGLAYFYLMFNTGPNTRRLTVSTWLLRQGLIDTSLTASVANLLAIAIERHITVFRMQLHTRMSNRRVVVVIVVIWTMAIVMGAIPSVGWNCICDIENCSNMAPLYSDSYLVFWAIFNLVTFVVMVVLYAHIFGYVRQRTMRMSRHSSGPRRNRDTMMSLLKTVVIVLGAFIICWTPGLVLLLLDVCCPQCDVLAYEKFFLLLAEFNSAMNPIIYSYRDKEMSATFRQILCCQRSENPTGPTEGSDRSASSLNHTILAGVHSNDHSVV

Row | IC50 (LPAR1) [nM] | Emax (LPAR1) [%] | IC50 [1] [nM] | SMILES | Emax [1] [%]
1 | 71 | 98 | 783 | COc1cc(OC)c([N+](=O)[O-])c(C(=O)N(CCCCC(=O)O)CCCc2ccccc2)c1 [Example 19, 5-[(3,5-dimethoxy-2-nitrobenzoyl)(3-phenylpropyl)amino]pentanoic Acid] | 84
2 | > 10000 | 32 | > 10000 | COc1cc(OC)cc(C(=O)N(CCCCC(=O)O)CCCc2ccccc2Cl)c1 [Example 135, 5-{[3-(2-chlorophenyl)propyl](3,5-dimethoxybenzoyl)amino}pentanoic Acid] | 25
3 | > 30000 | 31 | > 10000 | COc1cc(C(=O)N(CCCCC(=O)O)CCCc2ccccc2)ccc1F [Example 81, 5-[(4-fluoro-3-methoxybenzoyl)(3-phenylpropyl)amino]pentanoic Acid] | 33
4 | 333 | 81 | > 10000 | O=C(O)CCCCN(CCCc1ccccc1)C(=O)C1CC(=O)Nc2cc(F)ccc21 (stereo not shown) [Example 170, 5-[(7-fluoro-2-oxo-1,2,3,4-tetrahydroquinoline-4-carbonyl)(3-phenylpropyl)amino]pentanoic Acid] | 50
5 | > 10000 | 15 | > 10000 | COc1cc(OC)cc(C(=O)N(CCCCC(=O)O)CCCc2cc(F)cc(F)c2)c1 [Example 136, 5-{[3-(3,5-difluorophenyl)propyl](3,5-dimethoxybenzoyl)amino}pentanoic Acid] | 47
6 | 46 | 78 | 3190 | COc1cc(OC)cc(C(=O)N(CCCCC(=O)O)CCCc2ccc(C)o2)c1 [Example 133, 5-{(3,5-dimethoxybenzoyl)[3-(5-methylfuran-2-yl)propyl]amino}pentanoic Acid] | 68
7 | 124 | 87 | 1010 | COc1cc(C(=O)N(CCCc2ccccc2)CCCC(Cc2ccccc2)C(=O)O)cc(OC)c1C (stereo not shown) [Example 52, 2-benzyl-5-[(3,5-dimethoxy-4-methylbenzoyl)(3-phenylpropyl)amino]pentanoic Acid] | 77
8 | 97 | 92 | 1170 | COc1cc(C(=O)N(CCCCC(=O)NS(=O)(=O)C2CC2)CCCc2ccccc2)cc(OC)c1C [Example 119, N-{5-[(cyclopropanesulfonyl)amino]-5-oxopentyl}-3,5-dimethoxy-4-methyl-N-(3-phenylpropyl)benzamide] | 80
9 | > 30000 | 10 | > 10000 | COc1cc(C(=O)N(CCCCC(=O)O)CCc2ccccc2)cc(OC)c1C [Example 95, 5-[(3,5-dimethoxy-4-methylbenzoyl)(2-phenylethyl)amino]pentanoic Acid] | 18
10 | 933 | 70 | > 2180 | CC(=O)Nc1cc(C(=O)N(CCCCC(=O)O)CCCc2ccccc2)ccn1 [Example 171, 5-[(2-acetamidopyridine-4-carbonyl)(3-phenylpropyl)amino]pentanoic Acid] | 30
11 | 3980 | 61 | > 1300 | COc1cc(C(=O)N(CCCCC(=O)O)CCCc2ccccc2)ccc1Cl [Example 17, 5-[(4-chloro-3-methoxybenzoyl)(3-phenylpropyl)amino]pentanoic Acid] | 65
12 | 44 | 88 | 2980 | COc1ccc(C2(C(=O)N(CCCCC(=O)O)CCCc3ccccc3)CCC2)cc1 [Example 86, 5-{[1-(4-methoxyphenyl)cyclobutane-1-carbonyl](3-phenylpropyl)amino}pentanoic Acid] | 74
13 | 119 | 74 | 3890 | COc1cc(C(=O)N(CCCCC(=O)O)CCCc2cc(F)cc(F)c2)cc(OC)c1C [Example 126, 5-{[3-(3,5-difluorophenyl)propyl](3,5-dimethoxy-4-methylbenzoyl)amino}pentanoic Acid] | 75
14 | 635 | 58 | > 10000 | Cc1ncc(Cl)c(C(=O)N(CCCCC(=O)O)CCCc2ccccc2)n1 [Example 167, 5-[(5-chloro-2-methylpyrimidine-4-carbonyl)(3-phenylpropyl)amino]pentanoic Acid] | 25
15 | 56 | 98 | 637 | CNS(=O)(=O)NC(=O)CCCCN(CCCc1ccccc1)C(=O)c1cc(OC)c(C)c(OC)c1 [Example 70, 3,5-dimethoxy-4-methyl-N-{5-[(methylsulfamoyl)amino]-5-oxopentyl}-N-(3-phenylpropyl)benzamide] | 90
16 | 94 | 95 | 2900 | CCC1CCC(NC(=O)CN(CCCc2ccccc2)C(=O)c2cc(OC)c(C)c(OC)c2)(C(=O)O)CC1 (stereo not shown) [Example 104, 1-{[N-(3,5-dimethoxy-4-methylbenzoyl)-N-(3-phenylpropyl)glycyl]amino}-4-ethylcyclohexane-1-carboxylic Acid] | 74
17 | 50 | 89 | 1630 | CCOc1cc(OCC)cc(C(=O)N(CCCCC(=O)O)CCCc2ccccc2)c1 [Example 18, 5-[(3,5-diethoxybenzoyl)(3-phenylpropyl)amino]pentanoic Acid] | 86
18 | 47 | 85 | 1550 | COc1ccc(C2(C(=O)N(CCCCC(=O)O)CCCc3cccc(Cl)c3)CC2)cc1 [Example 102, 5-{[3-(3-chlorophenyl)propyl][1-(4-methoxyphenyl)cyclopropane-1-carbonyl]amino}pentanoic Acid] | 80
19 | > 30000 | 2 | > 10000 | COc1cc(C(=O)N(CCCCC(=O)O)Cc2ccccc2)cc(OC)c1C [Example 94, 5-[benzyl(3,5-dimethoxy-4-methylbenzoyl)amino]pentanoic Acid] | 13
20 | > 30000 | 7 | > 10000 | COc1ccc(C(=O)N(CCCCC(=O)O)CCCc2ccccc2)cc1 [Example 84, 5-[(4-methoxybenzoyl)(3-phenylpropyl)amino]pentanoic Acid] | 31
21 | 46 | 89 | 807 | COc1cc(C(=O)N(CCCCC(=O)O)CCCc2ccc(F)cc2F)cc(OC)c1C [Example 146, 5-{[3-(2,4-difluorophenyl)propyl](3,5-dimethoxy-4-methylbenzoyl)amino}pentanoic Acid] | 79
22 | 42 | 96 | 1060 | COc1cc(C(=O)N(CCCCc2nnn[nH]2)CCCc2ccccc2)cc(OC)c1C [Example 166, 3,5-dimethoxy-4-methyl-N-(3-phenylpropyl)-N-[4-(1H-tetrazol-5-yl)butyl]benzamide] | 80
23 | 76 | 88 | 831 | COc1cc(C(=O)N(CCCCC(=O)NS(=O)(=O)c2cccnc2)CCCc2ccccc2)cc(OC)c1C [Example 142, 3,5-dimethoxy-4-methyl-N-{5-oxo-5-[(pyridine-3-sulfonyl)amino]pentyl}-N-(3-phenylpropyl)benzamide] | 90
24 | > 30000 | 25 | > 10000 | COc1ccc(C(=O)N(CCCCC(=O)O)CCCc2ccccc2)cc1OC [Example 83, 5-[(3,4-dimethoxybenzoyl)(3-phenylpropyl)amino]pentanoic Acid] | 11
25 | > 30000 | 13 | > 10000 | COc1ccc(C(=O)N(CCCCC(=O)O)CCCc2ccccc2)cc1F [Example 79, 5-[(3-fluoro-4-methoxybenzoyl)(3-phenylpropyl)amino]pentanoic Acid] | 36
